Where a SMILES comes first, the peptide text is derived from it.
Key:
[1] = tested on: ChAT-positive neurons in the striatum; assay: ChAT immunohistochemistry in striatum of aging rats; type: in vivo, rat; conditions: single s.c. dose 0.012-12 mg/kg; 18-month old rats; 3 days after treatment
Procedure: Eighteen-month old male rats received one of five treatments. A control group was treated with vehicle (saline alone (n=4) and four groups were treated with a single dose of G-2-MePE. […] Rats were sacrificed with an overdose of pentobarbital 3 days after drug treatment. Brains were perfused with normal saline and 4% paraformaldehyde and fixed in perfusion fixative overnight. Brains were stored in 25% sucrose in 0.1M PBS (pH7.4) until the tissue sank. Frozen coronal sections of striatum were cut with a microtome and stored in 0.1% sodium azide in 0.1M PBS at 4° C. Immunoreactivity for choline acetyltransferase (ChAT) was established by staining using a free floating section method. Briefly, antibodies were diluted in 1% goat serum. The sections were incubated in 0.2% triton in 0.1M PBS/Triton™ at 4° C. overnight before Immunohistochemical staining. The sections were pre-treated with 1% H2O2 in 50% methanol for 20 min. The sections were then incubated with rabbit (Rb) anti-ChAT (1:5000) antibodies (the primary antibodies) in 4D on a shaker for two days. The sections were washed using PBS/Triton™ (15 minutes×3d) and then incubated with goat anti-rabbit biotinylated secondary antibodies (1:1000) at room temperature overnight. […] The size of the striatal region used for the count was measured using an image analyser. […] Data were analysed using a paired t-test and presented as mean+/−SEM.

17 month old rats = assay: 8-arm radial maze, spatial working memory; type: in vivo, rat; conditions: for WCC8-12 score, improvement across days: 9-day washout
Text: The apparatus consists of a central platform communicating with 8 identical arms, each with a food cup at the end of the arm Rats were partially food-deprived for at least 10 days prior to, and throughout the radial maze procedure. The maze was assembled and positioned so that the experimenter could clearly observe the rats' behavior from a predetermined location. The experimenter numbered the arms of the maze according to their orientation from one to eight in a clock-wise direction. On day one the doors were inserted into the arms and each rat was confined in the central platform with 20 food pellets for 5 minutes. […] The following day the rats were allowed five minutes to explore the whole maze. All arms were baited with two food pellets in the food cup located at the end of each arm, and one pellet at both the entrance and middle of each arm. This was repeated for at least five, but up to eight days for rats that explored fewer than eight arms in two consecutive sessions. […] At this point it was decided that one of the old rats that had made only one arm entry on eight of the nine days should be excluded from future testing in this procedure. Otherwise all rats were included regardless of the amount of exploring they performed in pre-training. […] 30 days before the test (five days after pre-training) the 17 Male Wistar month old rats were implanted (under halothane anesthesia) with sub-cutaneous mini-osmotic pumps (Alzet) to dispense drug continuously for 3 weeks. At the completion of the infusion the pumps were removed and the wounds re-sutured (9-day washout allowed). The treatment groups were: • 1. young controls (4 months old), n=6; • 2. saline n=10; • 3. G-2-MePE low dose (2.4 mg/kg/day) n=13 • 4. G-2-MePE high dose (12.4 mg/kg/day) n=5 Working memory testing commenced on the ninth day of washout. Rats received 10 daily training sessions over 12 days. […] The experimenter recorded the sequence of arm entries with pen and paper. […] The time taken to enter all eight arms, when this occurred, was recorded. […]

adult MeCP2+/- mice = assay: Ocular dominance plasticity, optical imaging (Example 10); type: in vivo, mouse; conditions: 4 days monocular deprivation, daily i.p.
Procedure: Adult (>P60) wild type (SVEV or BL6) and MeCP2 (+/−) mutant females (BL6) are used for this experiment. The wild type control group is composed of both wild type littermates of MeCP2+/− females or wild type age matched SVEV females. For monocular deprivation, animals are anesthetized with Avertin (0.016 ml/g) and the eyelids of one eye is sutured for 4 days. Prior to imaging, the suture is removed and the deprived eye re-opened. Only animals in which the deprivation sutures are intact and the condition of the deprived eye appears healthy are used for the imaging session. For G-2-MePE signaling activation, a solution containing G-2-MePE is injected intra-peritoneally (IP) daily for the entire period of deprivation. For the imaging sessions mice are anesthetized with urethane (1.5 g/kg; 20% of the full dosage is administered IP each 20-30 minutes up to the final dosage, 0.02 ml of cloroprothixene 1% is also injected together with the first administration). The skull is exposed and a custom-made plate is glued on the head to minimize movement. The skull is thinned over V1 with a dremel drill and covered with an agarose solution in saline (1.5%) and a glass coverslip. During the imaging session, the animal is constantly oxygenated, its temperature maintained with a heating blanket and the eyes periodically treated with silicone oil; physiological conditions are constantly monitored. […]

## C[C@@]1(C(=O)N[C@@H](CCC(=O)O)C(=O)O)CCCN1C(=O)CN [Example G-2-MePE, Glycyl-L-2-methylprolyl-L-glutamic acid] (HELM PEPTIDE1{G.[C[C@@]1(C(=O)[*:2])CCCN1[*:1]].E}$$$$V2.0)
[1]
  number of ChAT-immunopositive neurons: increased
17 month old rats; high dose 12.4 mg/kg/day s.c. pump 3 weeks
  WCC8-12 score, improvement across days: showed the greatest improvement across days
17 month old rats; higher dose vs vehicle, p<0.05
  correct maze choices averaged across days: more correct entries
17 month old rats; low dose 2.4 mg/kg/day s.c. pump 3 weeks
  WCC8-12 score, improvement across days: very little difference
Adult MeCP2+/- mice
  ocular dominance plasticity: reduces the OD plasticity

Reference: patent US20150224164A1, “TREATMENT OF AUTISM SPECTRUM DISORDERS USING GLYCYL-L-2-METHYLPROLYL-L-GLUMATIC ACID” (Neuren Pharmaceuticals Limited, priority 2013, published 2015)
